From ChEMBL document CHEMBL4699511, “Cedrol, a Sesquiterpene Alcohol, Enhances the Anticancer Efficacy of Temozolomide in Attenuating Drug Resistance via Regulation of the DNA Damage Response and MGMT Expression” (J Nat Prod, 2020)
Active and inactive are the calls of the source. The calls are words filed in the database; no cut-off is given here.

What was measured:
DBTRG-05MG [1] = assay: Synergistic cytotoxicity against human DBTRG-05MG cells assessed as synergistic effect index at 112.4 uM after 48 hrs in presence of 515.1 uM TMZ by MTT assay; format: functional
DBTRG-05MG [2] = assay: Synergistic cytotoxicity against human DBTRG-05MG cells assessed as combination index at 89.9 uM after 48 hrs in presence of 103 uM TMZ by MTT assay; format: functional
DBTRG-05MG [3] = assay: Synergistic cytotoxicity against human DBTRG-05MG cells assessed as combination index at 134.9 uM after 48 hrs in presence of 103 uM TMZ by MTT assay; format: functional
DBTRG-05MG [4] = assay: Synergistic cytotoxicity against human DBTRG-05MG cells assessed as combination index at 134.9 uM after 48 hrs in presence of 309 uM TMZ by MTT assay; format: functional
RG2 [5] = assay: Synergistic cytotoxicity against rat RG2 cells assessed as synergistic effect index at 134.9 uM after 48 hrs in presence of 103 uM TMZ by MTT assay; format: functional
RG2 [6] = assay: Synergistic cytotoxicity against rat RG2 cells assessed as combination index at 112.4 uM after 48 hrs in presence of 103 uM TMZ by MTT assay; format: functional
RG2 [7] = assay: Synergistic cytotoxicity against rat RG2 cells assessed as combination index at 112.4 uM after 48 hrs in presence of 515.1 uM TMZ by MTT assay; format: functional
[8] = Synergistic cytotoxicity against rat CTX TNA2 cells assessed as combination index at 89.9 uM after 48 hrs in presence of 103 uM TMZ by MTT assay; format: cell-based; details: ctx tna2, 48 h
[9] = Synergistic cytotoxicity against rat CTX TNA2 cells assessed as combination index at 134.9 uM after 48 hrs in presence of 412.1 uM TMZ by MTT assay; format: cell-based; details: ctx tna2, 48 h
[10] = Synergistic cytotoxicity against rat CTX TNA2 cells assessed as combination index at 134.9 uM after 48 hrs in presence of 515.1 uM TMZ by MTT assay; format: cell-based; details: ctx tna2, 48 h
DBTRG-05MG [11] = assay: Induction of cell cycle arrest in human DBTRG-05MG cells assessed as accumulation at G2/M phase at 112.4 uM after 6 hrs in presence of TMZ by propidium iodide staining based flow cytometric analysis (reference value: 30.08 +/- 0.1%); format: functional
DBTRG-05MG [12] = assay: Induction of cell cycle arrest in human DBTRG-05MG cells assessed as accumulation at G0/G1 phase at 112.4 uM after 24 hrs by propidium iodide staining based flow cytometric analysis (reference value: 47.16 +/- 1.55%); format: functional
DBTRG-05MG [13] = assay: Induction of cell cycle arrest in human DBTRG-05MG cells assessed as accumulation at G2/M phase at 112.4 uM after 24 hrs in presence of TMZ by propidium iodide staining based flow cytometric analysis (reference value: 30.08 +/- 0.1%); format: functional
RG2 [14] = assay: Induction of cell cycle arrest in rat RG2 cells assessed as accumulation at G2/M phase at 112.4 uM after 24 hrs by propidium iodide staining based flow cytometric analysis (reference value: 20.04 +/- 0.55%); format: functional
DBTRG-05MG [15] = assay: Induction of cell cycle arrest in human DBTRG-05MG cells assessed as CyclinA expression at 112.4 uM after 48 hrs by Western blot analysis (reference value: 1); format: functional
DBTRG-05MG [16] = assay: Induction of cell cycle arrest in human DBTRG-05MG cells assessed as CyclinA expression at 112.4 uM after 48 hrs in presence of TMZ by Western blot analysis (reference value: 1); format: functional
RG2 [17] = assay: Induction of cell cycle arrest in rat RG2 cells assessed as p21 expression at 112.4 uM after 48 hrs in presence of TMZ by Western blot analysis (reference value: 1); format: functional
[18] = Effect on AKT expression in human DBTRG-05MG cells at 112.4uM after 48 hrs by Western blot analysis (reference value: 1); format: functional
[19] = Effect on ERK expression in rat RG2 cells at 112.4uM after 48 hrs by Western blot analysis (reference value: 1); format: functional
[20] = Effect on p38 expression in rat RG2 cells at 112.4uM after 48 hrs by Western blot analysis (reference value: 1); format: functional
RG2 [21] = assay: Inhibition of AKT phosphorylation at S473 residues in rat RG2 cells at 112.4uM after 48 hrs in presence of TMZ by Western blot analysis; format: cell-based
DBTRG-05MG [22] = assay: Induction of apoptosis in human DBTRG-05MG cells assessed as increase in DNA fragmentation at 112.4 uM after 48 hrs by TUNEL assay; format: functional, cell-based
RG2 [23] = assay: Induction of apoptosis in rat RG2 cells assessed as increase in apoptotic body formation at 112.4 uM after 48 hrs by TUNEL assay; format: functional, cell-based
RG2 [24] = assay: Induction of apoptosis in rat RG2 cells assessed as increase in chromatin condensation at 112.4 uM after 48 hrs in presence of TMZ by TUNEL assay; format: functional, cell-based
DBTRG-05MG [25] = assay: Induction of DNA damage in human DBTRG-05MG cells assessed as ATR phosphorylation at ser428 residues at 112.4 uM after 48 hrs by Western blot analysis (reference value: 1); format: functional
DBTRG-05MG [26] = assay: Induction of DNA damage in human DBTRG-05MG cells assessed as H2A.X phosphorylation at ser139 residues at 112.4 uM after 48 hrs by Western blot analysis (reference value: 1); format: functional
DBTRG-05MG [27] = assay: Induction of DNA damage in human DBTRG-05MG cells assessed as H2A.X phosphorylation at ser139 residues at 112.4 uM after 48 hrs in presence of TMZ by Western blot analysis (reference value: 1); format: functional
RG2 [28] = assay: Induction of DNA damage in rat RG2 cells assessed as H2A.X phosphorylation at ser139 at 112.4 uM after 48 hrs in presence of TMZ by Western blot analysis (reference value: 1); format: functional
[29] = Effect of MGMT expression in human DBTRG-05MG cells at 112.4 uM after 48 hrs by Western blot analysis (reference value: 1); format: functional
DBTRG-05MG [30] = assay: Induction of cell cycle arrest in human DBTRG-05MG cells assessed as accumulation at G2/M phase at 206 uM after 48 hrs by propidium iodide staining based flow cytometric analysis (reference value: 30.08 +/- 0.1%); format: functional
RG2 [31] = assay: Induction of cell cycle arrest in rat RG2 cells assessed as CyclinA expression at 206 uM after 48 hrs by Western blot analysis (reference value: 1); format: functional
DBTRG-05MG [32] = assay: Induction of apoptosis in human DBTRG-05MG cells assessed as increase in chromatin condensation at 206 uM after 48 hrs by TUNEL assay; format: functional, cell-based
DBTRG-05MG [33] = assay: Induction of apoptosis in human DBTRG-05MG cells assessed as increase in DNA fragmentation at 206 uM after 48 hrs by TUNEL assay; format: functional, cell-based
RG2 [34] = assay: Induction of apoptosis in rat RG2 cells assessed as cleaved caspace-9 expression at 206 uM after 48 hrs by Western blot analysis (reference value: 1); format: functional
RG2 [35] = assay: Induction of DNA damage in rat RG2 cells assessed as ATM phosphorylation at ser1981 residues at 206 uM after 48 hrs by Western blot analysis (reference value: 1); format: functional

For `C[C@@H]1CC[C@H]2C(C)(C)[C@H]3C[C@@]12CC[C@@]3(C)O` [CEDROL], which Activity_index (DBTRG-05MG [1]) is on record?
Its Activity_index is 0.85.

And the CI (DBTRG-05MG [2])?
The CI was 0.74.

And the CI (DBTRG-05MG [3])?
Its CI is 0.64.

And the CI (DBTRG-05MG [4])?
The CI was 0.61.

What about the Activity_index (RG2 [5]) of the same molecule?
The Activity_index was 0.9.

And the CI (RG2 [6])?
Its CI is 0.8.

What about the CI (RG2 [7]) of the same molecule?
Its CI is 1.06.

What about the CI [8] of the same molecule?
The CI was 1.24.

And the CI [9]?
Its CI is 1.13.

And the CI [10]?
The CI was 0.88.

And the Activity (DBTRG-05MG [11])?
Its Activity is 32.51%.

And the Activity (DBTRG-05MG [12])?
Its Activity is 57.59%.

What about the Activity (DBTRG-05MG [13]) of the same molecule?
The Activity was 36.89%.

What about the Activity (RG2 [14]) of the same molecule?
Its Activity is 18.42%.

And the “fold change (FC)” value (DBTRG-05MG [15])?
Its value is 0.6.

What about the “fold change (FC)” value (DBTRG-05MG [16]) of the same molecule?
The value was 1.6.

What about the “fold change (FC)” value (RG2 [17]) of the same molecule?
Its value is 2.5.

What about the “fold change (FC)” value [18] of the same molecule?
The value was 0.9.

And the “fold change (FC)” value [19]?
The value was 1.1.

What about the “fold change (FC)” value [20] of the same molecule?
Its value is 0.8.

And the fold change (FC) (RG2 [21])?
Its fold change (FC) is 0.5.

What about the Activity (DBTRG-05MG [22]) of the same molecule?
The Activity was “Active”.

What about the Activity (RG2 [23]) of the same molecule?
The Activity was “Active”.

What about the Activity (RG2 [24]) of the same molecule?
Its Activity is “Active”.

And the “fold change (FC)” value (DBTRG-05MG [25])?
Its value is 1.5.

And the “fold change (FC)” value (DBTRG-05MG [26])?
Its value is 0.9.

What about the “fold change (FC)” value (DBTRG-05MG [27]) of the same molecule?
Its value is 1.2.

And the “fold change (FC)” value (RG2 [28])?
The value was 1.3.

And the “fold change (FC)” value [29]?
Its value is 0.8.

Which Activity (DBTRG-05MG [30]) does the source give for `Cn1nnc2c(C(N)=O)ncn2c1=O` [TEMOZOLOMIDE] here?
The Activity was 53.64%.

What about the “fold change (FC)” value (RG2 [31]) of the same molecule?
Its value is 1.9.

And the Activity (DBTRG-05MG [32])?
The Activity was “Active”.

And the Activity (DBTRG-05MG [33])?
Its Activity is “Active”.

And the “fold change (FC)” value (RG2 [34])?
The value was 1.7.

What about the “fold change (FC)” value (RG2 [35]) of the same molecule?
The value was 0.9.
